According to patent US20230398130A1, “METHODS AND COMPOSITIONS FOR DIFFERENTIATING STEM CELLS” (Massachusetts Institute of Technology, priority 2020, published 2023):

How the values were obtained:
ISC-enriched organoids [1] = test: Primary screen, 384-well 2.5-D organoid differentiation (ENR+CD, 6 days, Target Selective Inhibitor Library, vs whole-plate median): ATP (CellTiter-Glo 3D, CTG); conditions: for Dose.FC.CTG: FC vs plate median; for SSMD.CTG: strictly standardized mean difference
ISC-enriched organoids [2] = test: Primary screen, 384-well 2.5-D organoid differentiation (ENR+CD, 6 days): basal lysozyme secretion (LYZ.NS); assay type: cell-based, murine; conditions: for Dose.FC.LYZ.NS: FC vs plate median; for SSMD.LYZ.NS: strictly standardized mean difference
Source text: (§1) High-throughput screening.

ISC-enriched organoids [3] = test: Primary screen, 384-well 2.5-D organoid differentiation (ENR+CD, 6 days): carbachol-induced lysozyme secretion (LYZ.S); assay type: cell-based, murine; conditions: primary screen; for Dose.FC.LYZ.S: FC vs plate median; for Z.LYZ.S: standard z score; for SSMD.LYZ.S: strictly standardized mean difference
Source text: as §1

[4] = Dose 0.08 uM, primary screen, standard z score
[5] = Dose 0.40 uM, primary screen, standard z score
[6] = Dose 2.00 uM, primary screen, standard z score
[7] = Dose 10.00 uM, primary screen, standard z score
[8] = Dose 0.08 uM, standard z score of FC
[9] = Dose 0.40 uM, standard z score of FC
[10] = Dose 2.00 uM, standard z score of FC
[11] = Dose 10.00 uM, standard z score of FC
[12] = primary screen, 1st of the 4 dose lines of the treatment (dose not given)
[13] = primary screen, 2nd of the 4 dose lines of the treatment (dose not given)
[14] = primary screen, 3rd of the 4 dose lines of the treatment (dose not given)
[15] = primary screen, 4th of the 4 dose lines of the treatment (dose not given)
[16] = 1st of the 4 dose lines of the treatment (dose not given)
[17] = 2nd of the 4 dose lines of the treatment (dose not given)
[18] = 3rd of the 4 dose lines of the treatment (dose not given)
[19] = 4th of the 4 dose lines of the treatment (dose not given)

SMILES: Cl.O=C(O)Cc1cccc(OCCCN(Cc2cccc(C(F)(F)F)c2Cl)CC(c2ccccc2)c2ccccc2)c1 [GW3965 HCl]
- Dose.FC.CTG (ISC-enriched organoids [1]; Dose 0.08 uM, primary screen): 0.138 log 2 fold change
- Z.CTG (ISC-enriched organoids [1]; [4]): 0.330
- Dose.FC.CTG (ISC-enriched organoids [1]; Dose 0.40 uM, primary screen): 0.201 log 2 fold change
- Z.CTG (ISC-enriched organoids [1]; [5]): 0.481
- Dose.FC.CTG (ISC-enriched organoids [1]; Dose 2.00 uM, primary screen): 0.229 log 2 fold change
- Z.CTG (ISC-enriched organoids [1]; [6]): 0.546
- Dose.FC.CTG (ISC-enriched organoids [1]; Dose 10.00 uM, primary screen): −0.078 log 2 fold change
- Z.CTG (ISC-enriched organoids [1]; [7]): −0.186
- Dose.FC.LYZ.NS (ISC-enriched organoids [2]; Dose 0.08 uM, primary screen): 0.059 log 2 fold change
- Z.LYZ.NS (ISC-enriched organoids [2]; [4]): 0.516
- Dose.FC.LYZ.NS (ISC-enriched organoids [2]; Dose 0.40 uM, primary screen): 0.002 log 2 fold change
- Z.LYZ.NS (ISC-enriched organoids [2]; [5]): 0.013
- Dose.FC.LYZ.NS (ISC-enriched organoids [2]; Dose 2.00 uM, primary screen): 0.077 log 2 fold change
- Z.LYZ.NS (ISC-enriched organoids [2]; [6]): 0.673
- Dose.FC.LYZ.NS (ISC-enriched organoids [2]; Dose 10.00 uM, primary screen): −0.009 log 2 fold change
- Z.LYZ.NS (ISC-enriched organoids [2]; [7]): −0.080
- Dose.FC.LYZ.S (ISC-enriched organoids [3]; Dose 0.08 uM): 0.091 log 2 fold change
- Dose.FC.LYZ.S (ISC-enriched organoids [3]; Dose 0.40 uM): 0.074 log 2 fold change
- Dose.FC.LYZ.S (ISC-enriched organoids [3]; Dose 2.00 uM): 0.179 log 2 fold change
- Dose.FC.LYZ.S (ISC-enriched organoids [3]; Dose 10.00 uM): −0.047 log 2 fold change

SMILES: FC(F)(F)c1ccc(/C=C/c2nc(COc3ccc(CCCCn4ccnn4)cc3)co2)cc1 [Mubritinib (TAK 165)]
- Dose.FC.CTG (ISC-enriched organoids [1]; Dose 0.08 uM, primary screen): −0.524 log 2 fold change
- Z.CTG (ISC-enriched organoids [1]; [8]): −1.252
- Dose.FC.CTG (ISC-enriched organoids [1]; Dose 0.40 uM, primary screen): −0.340 log 2 fold change
- Z.CTG (ISC-enriched organoids [1]; [9]): −0.812
- Dose.FC.CTG (ISC-enriched organoids [1]; Dose 2.00 uM, primary screen): −0.530 log 2 fold change
- Z.CTG (ISC-enriched organoids [1]; [10]): −1.265
- Dose.FC.CTG (ISC-enriched organoids [1]; Dose 10.00 uM, primary screen): −0.519 log 2 fold change
- Z.CTG (ISC-enriched organoids [1]; [11]): −1.240
- Dose.FC.LYZ.NS (ISC-enriched organoids [2]; Dose 0.08 uM, primary screen): −0.057 log 2 fold change
- Z.LYZ.NS (ISC-enriched organoids [2]; [8]): −0.500
- Dose.FC.LYZ.NS (ISC-enriched organoids [2]; Dose 0.40 uM, primary screen): −0.194 log 2 fold change
- Z.LYZ.NS (ISC-enriched organoids [2]; [9]): −1.687
- Dose.FC.LYZ.NS (ISC-enriched organoids [2]; Dose 2.00 uM, primary screen): −0.224 log 2 fold change
- Z.LYZ.NS (ISC-enriched organoids [2]; [10]): −1.950
- Dose.FC.LYZ.NS (ISC-enriched organoids [2]; Dose 10.00 uM, primary screen): −0.240 log 2 fold change
- Z.LYZ.NS (ISC-enriched organoids [2]; [11]): −2.092
- Dose.FC.LYZ.S (ISC-enriched organoids [3]; Dose 0.08 uM): −0.119 log 2 fold change
- Dose.FC.LYZ.S (ISC-enriched organoids [3]; Dose 0.40 uM): −0.154 log 2 fold change
- Dose.FC.LYZ.S (ISC-enriched organoids [3]; Dose 2.00 uM): −0.299 log 2 fold change
- Dose.FC.LYZ.S (ISC-enriched organoids [3]; Dose 10.00 uM): −0.294 log 2 fold change

SMILES: c1cc(-c2cnn3cc(-c4ccc(N5CCNCC5)cc4)cnc23)c2cccnc2c1 [LDN-212854]
- Dose.FC.CTG (ISC-enriched organoids [1]; Dose 0.08 uM, primary screen): 0.238 log 2 fold change
- Z.CTG (ISC-enriched organoids [1]; [4]): 0.568
- Dose.FC.CTG (ISC-enriched organoids [1]; Dose 0.40 uM, primary screen): 0.129 log 2 fold change
- Z.CTG (ISC-enriched organoids [1]; [5]): 0.309
- Dose.FC.CTG (ISC-enriched organoids [1]; Dose 2.00 uM, primary screen): −0.475 log 2 fold change
- Z.CTG (ISC-enriched organoids [1]; [6]): −1.134
- Dose.FC.CTG (ISC-enriched organoids [1]; Dose 10.00 uM, primary screen): −1.263 log 2 fold change
- Z.CTG (ISC-enriched organoids [1]; [7]): −3.018
- SSMD.CTG (ISC-enriched organoids [1]; [12]): 0.686
- SSMD.CTG (ISC-enriched organoids [1]; [13]): 0.242
- SSMD.CTG (ISC-enriched organoids [1]; [14]): −1.244
- SSMD.CTG (ISC-enriched organoids [1]; [15]): −1.589
- Dose.FC.LYZ.NS (ISC-enriched organoids [2]; Dose 0.08 uM, primary screen): 0.095 log 2 fold change
- Z.LYZ.NS (ISC-enriched organoids [2]; [4]): 0.823
- Dose.FC.LYZ.NS (ISC-enriched organoids [2]; Dose 0.40 uM, primary screen): 0.051 log 2 fold change
- Z.LYZ.NS (ISC-enriched organoids [2]; [5]): 0.446
- Dose.FC.LYZ.NS (ISC-enriched organoids [2]; Dose 2.00 uM, primary screen): −0.217 log 2 fold change
- Z.LYZ.NS (ISC-enriched organoids [2]; [6]): −1.885
- Dose.FC.LYZ.NS (ISC-enriched organoids [2]; Dose 10.00 uM, primary screen): −0.273 log 2 fold change
- Z.LYZ.NS (ISC-enriched organoids [2]; [7]): −2.375
- SSMD.LYZ.NS (ISC-enriched organoids [2]; [12]): 0.567
- SSMD.LYZ.NS (ISC-enriched organoids [2]; [13]): 0.395
- SSMD.LYZ.NS (ISC-enriched organoids [2]; [14]): −1.438
- SSMD.LYZ.NS (ISC-enriched organoids [2]; [15]): −1.649
- Dose.FC.LYZ.S (ISC-enriched organoids [3]; Dose 0.08 uM): 0.162 log 2 fold change
- Dose.FC.LYZ.S (ISC-enriched organoids [3]; Dose 0.40 uM): 0.026 log 2 fold change
- Dose.FC.LYZ.S (ISC-enriched organoids [3]; Dose 2.00 uM): −0.292 log 2 fold change
- Dose.FC.LYZ.S (ISC-enriched organoids [3]; Dose 10.00 uM): −0.399 log 2 fold change
- Z.LYZ.S (ISC-enriched organoids [3]; [16]): 1.050
- Z.LYZ.S (ISC-enriched organoids [3]; [17]): 0.167
- Z.LYZ.S (ISC-enriched organoids [3]; [18]): −1.888
- Z.LYZ.S (ISC-enriched organoids [3]; [19]): −2.582
- SSMD.LYZ.S (ISC-enriched organoids [3]; [16]): 0.799
- SSMD.LYZ.S (ISC-enriched organoids [3]; [17]): 0.136
- SSMD.LYZ.S (ISC-enriched organoids [3]; [18]): −1.525
- SSMD.LYZ.S (ISC-enriched organoids [3]; [19]): −1.672
